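Dose response: 5 concentrations. Exposure: 48 h. Format: 96-well plates. Endpoint: linear interpolation; highest concentration if not reached. Definition used: TGI = concentration required for complete inhibition of growth.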 Some results are limits rather than exact numbers.

Common to all, as to assay: NCI-60 cell line screen, 48 h
Experiment [1] relates to OVCAR-8 ovarian.
For experiment [2], the system named is RPMI-8226 leukemia.
Experiment [3] concerns UACC-62 melanoma.
Experiment [4] relates to TK-10 renal.
The subject of experiment [5] is K-562 leukemia.
For experiment [6], the system named is OVCAR-3 ovarian.
Experiment [7] deals with SN12C renal.
Experiment [8] has as its system SK-MEL-5 melanoma.
The test system of experiment [9] is NCI-H460 lung.
The test system of experiment [10] is EKVX NSCLC.
Experiment [11] deals with SF-539 CNS.
In experiment [12] the test system is RXF 393 renal.
Experiment [13] deals with HT29 colon.
Experiment [14] deals with 786-0 renal.
For experiment [15], the system named is SF-268 CNS.
In experiment [16] the test system is SNB-19 CNS.
Experiment [17] has as its system NCI-H522 lung.

For the molecule `COC(=O)CC(C(C(=O)OCc1ccccc1)C(C)O)N1C(=O)OCC1c1ccccc1` (stereo not drawn), the TGI in [1], in experiment [2], in [3], in experiment [4], in experiment [5] and in experiment [6] was more than 100 µM throughout. Also, the TGI in experiment [7], in [8], in experiment [9], in experiment [10], in [11] and in experiment [12] was more than 100 µM in each case. Also, the TGI in experiment [13], in experiment [14], in experiment [15] and in experiment [16] was more than 100 µM each time.
As to `COC1CC(O[C@H]2CC[C@@]3(C)C(=CCC4(O)C3CCC35C(=O)OC6(C)O[C@@]43CCC65)C2)OC(C)C1O` (stereo partly drawn), the TGI in experiment [1], in experiment [2], in experiment [3], in experiment [4], in experiment [5] and in [7] was more than 100 µM throughout. Further, the TGI in [17], in experiment [8], in experiment [9], in experiment [10], in experiment [11] and in [12] was more than 100 µM throughout. The TGI in experiment [13], in experiment [14], in [15] and in experiment [16] was more than 100 µM in each case.
As for `C=CCC1(CN(C)C)CC/C(=C\c2cc(OC)c(OC)c(OC)c2)C1=O` (stereo not drawn), the TGI in [1] was 54.6 µM; in experiment [2] it was 59.6 µM; in [3], 43.1 µM; in [4], 36.4 µM; in experiment [5], 54.1 µM; in experiment [6] it was 69.2 µM. Moreover, the TGI worked out at 54.8 µM in [7]; 29.4 µM in experiment [17]; 35.3 µM in experiment [8]; 36.9 µM in [9]; 61.4 µM in [10]; 35 µM in [11]. The TGI in [12] was 37.3 µM; in experiment [13] it was 40.6 µM; in experiment [14], 39.3 µM; in experiment [15], 51.6 µM; in [16] it was more than 100 µM.
In the case of `Cc1ccc(NC(=O)C(=O)C2C(=O)NC(=O)NC2=O)c(C)c1`, the TGI in experiment [1], in [2], in [3], in [4], in [5] and in experiment [6] was more than 100 µM in each case. Also, the TGI is 28.2 µM in experiment [7]; more than 100 µM in experiment [17]; more than 100 µM in [8]; more than 100 µM in [9]; more than 100 µM in [10]; more than 100 µM in experiment [11]. For the same molecule, the TGI in [12], in experiment [13], in experiment [14], in [15] and in experiment [16] was more than 100 µM throughout.
For the molecule `CO/S(=N/S(=O)(=O)c1ccccc1)c1ccccc1[N+](=O)[O-]` (stereo not drawn), the TGI in experiment [1], in [2], in experiment [3], in experiment [5], in experiment [6] and in experiment [7] was more than 100 µM in each case. Moreover, the TGI in [17], in [8], in experiment [9], in [10], in experiment [11] and in experiment [13] was more than 100 µM throughout. In addition, the TGI in experiment [14], in [15] and in experiment [16] was more than 100 µM throughout.
For `CC(C)(Oc1ccc2c(=O)cc(-c3ccc(Cl)cc3)oc2c1)C(=O)Nc1c(Cl)cccc1Cl`, the TGI in [1], in experiment [2], in [3], in experiment [4], in [5] and in experiment [6] was more than 100 µM in each case. In addition, the TGI in experiment [17], in experiment [8], in [9], in [10], in experiment [11] and in [13] was more than 100 µM throughout. The TGI in experiment [14], in experiment [15] and in experiment [16] was more than 100 µM each time.
For `CSc1nc2nccnc2c(=O)[nH]1`, the TGI in experiment [1], in experiment [2], in experiment [3], in experiment [4], in experiment [5] and in experiment [7] was more than 100 µM throughout. Also, the TGI in [17], in experiment [8], in [9], in experiment [10], in [12] and in experiment [13] was more than 100 µM throughout. Besides, the TGI in [14], in experiment [15] and in [16] was more than 100 µM throughout.
Take `[N-]=[N+]=C1C(=O)C2CC3CC1CC2C3` (stereo not drawn): the TGI in experiment [1], in [2], in [3], in experiment [4], in [5] and in experiment [6] was more than 100 µM throughout. The TGI in experiment [7], in experiment [17], in [8], in experiment [9], in experiment [10] and in experiment [11] was more than 100 µM each time. Further, the TGI in experiment [12], in experiment [13], in experiment [14], in experiment [15] and in experiment [16] was more than 100 µM throughout.
Consider `COc1ccc(C2=NN(C(C)=O)c3nc4ccccc4nc3O2)cc1`, for which the TGI in [1] is more than 100 µM; in experiment [2], more than 100 µM; in experiment [3], more than 100 µM; in [4] it was 52.1 µM; in experiment [5], more than 100 µM; in [6], more than 100 µM. The TGI in experiment [7] is more than 100 µM; in experiment [17] it was 63.8 µM; in [9] it was more than 100 µM; in [10], more than 100 µM; in experiment [11], 43.1 µM; in experiment [13], more than 100 µM. For the same molecule, the TGI is 48.7 µM in experiment [14], more than 100 µM in [15] and 87.7 µM in [16].

The values are drawn from PubChem BioAssay (NCI).
